What follows are molecules tested against T1, hTRPA1 (Homo sapiens, UniProt O75762, K186N) (assay: High throughput Ca2+ fluorescence (Fluo4) assay, AITC stimulation). Settings: Table 2; read-out: hTRPA1 Fluor IC50.
T1 construct: expressed in transfected cells; host or cells: HEK293/TREx (Invitrogen), induced with tetracycline
Type: cell-based
Outline: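 Read-out is Fluo4 fluorescence, proportional to [Ca2+]i, over ~3 min after AITC challenge, following 2 min compound pre-exposure in HEK293/TREx cells induced with 1 μg/ml tetracycline. Dye: 1 μM, 60 min, room temperature.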

T1 sequence (O75762 whole entry K186N): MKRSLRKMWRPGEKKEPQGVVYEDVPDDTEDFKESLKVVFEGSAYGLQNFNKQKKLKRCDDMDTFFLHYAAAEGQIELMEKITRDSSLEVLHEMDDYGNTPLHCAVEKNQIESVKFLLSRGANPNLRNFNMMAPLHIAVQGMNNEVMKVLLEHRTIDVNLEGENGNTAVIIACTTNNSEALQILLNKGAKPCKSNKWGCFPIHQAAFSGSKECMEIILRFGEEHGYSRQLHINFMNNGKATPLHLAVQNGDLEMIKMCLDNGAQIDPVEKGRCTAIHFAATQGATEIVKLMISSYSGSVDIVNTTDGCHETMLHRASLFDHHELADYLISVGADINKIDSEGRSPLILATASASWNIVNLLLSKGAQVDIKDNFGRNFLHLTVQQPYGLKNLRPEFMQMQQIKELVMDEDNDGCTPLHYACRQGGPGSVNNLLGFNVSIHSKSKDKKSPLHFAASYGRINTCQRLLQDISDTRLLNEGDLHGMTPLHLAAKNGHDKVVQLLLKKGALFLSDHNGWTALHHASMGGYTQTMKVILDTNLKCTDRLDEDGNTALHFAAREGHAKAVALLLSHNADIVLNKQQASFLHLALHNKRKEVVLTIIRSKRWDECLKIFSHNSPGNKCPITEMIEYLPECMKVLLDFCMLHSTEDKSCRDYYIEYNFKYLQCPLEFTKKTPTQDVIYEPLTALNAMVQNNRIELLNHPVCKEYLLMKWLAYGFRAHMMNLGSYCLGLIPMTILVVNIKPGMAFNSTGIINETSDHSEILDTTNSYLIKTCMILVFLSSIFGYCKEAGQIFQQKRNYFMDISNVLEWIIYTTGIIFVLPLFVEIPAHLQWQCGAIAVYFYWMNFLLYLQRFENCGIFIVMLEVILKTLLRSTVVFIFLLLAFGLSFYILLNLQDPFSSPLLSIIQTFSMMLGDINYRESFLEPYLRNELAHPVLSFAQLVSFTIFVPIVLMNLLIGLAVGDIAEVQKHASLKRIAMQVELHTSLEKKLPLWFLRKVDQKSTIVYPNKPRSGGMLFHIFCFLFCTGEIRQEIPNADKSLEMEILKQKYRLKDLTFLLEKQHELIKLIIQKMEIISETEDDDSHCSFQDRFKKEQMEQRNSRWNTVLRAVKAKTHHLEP

Row | Compound | IC50
1 | Cc1ccc(NC(=O)Cn2cnc3c2c(=O)n(C)c(=O)n3C)c(Br)c1 [Compound 265] | ≥ 20 µM
2 | COc1ccc(CNC(=O)Cn2cnc3c2c(=O)n(C)c(=O)n3C)cc1OC [Compound 319] | > 10 µM
3 | Cn1c(=O)c2c(ncn2CC(=O)NCC(c2ccccc2)N2CCCC2)n(C)c1=O (centres unmarked) [Compound 321] | > 10 µM
4 | CN(CCCNC(=O)Cn1cnc2c1c(=O)n(C)c(=O)n2C)c1ccccc1 [Compound 322] | > 10 µM
5 | Cc1cc(C)n(CCCNC(=O)Cn2cnc3c2c(=O)n(C)c(=O)n3C)n1 [Compound 323] | > 10 µM
6 | CN(CCOc1ccccc1)C(=O)Cn1cnc2c1c(=O)n(C)c(=O)n2C [Compound 324] | ≥ 20 µM
7 | CC(NC(=O)Cn1cnc2c1c(=O)n(C)c(=O)n2C)c1ccc(-n2ccnc2)cc1 (centres unmarked) [Compound 325] | ≥ 20 µM
8 | CC(C(=O)Nc1ccc(F)cc1)n1cnc2c1c(=O)n(C)c(=O)n2C (centres unmarked) [Compound 327] | > 10 µM
9 | Cc1cccc(NC(=O)C(C)n2cnc3c2c(=O)n(C)c(=O)n3C)c1 (centres unmarked) [Compound 328] | ≥ 30 µM
10 | Cc1cc(C)c(NC(=O)Cn2cnc3c2c(=O)n(C)c(=O)n3C)c(Cl)c1 [Compound 330] | > 10 µM
11 | CC(C(=O)Nc1ccc2c(c1)OCO2)n1cnc2c1c(=O)n(C)c(=O)n2C (centres unmarked) [Compound 331] | > 10 µM
12 | CC(C)C(C)NC(=O)Cn1cnc2c1c(=O)n(C)c(=O)n2C (centres unmarked) [Compound 332] | > 10 µM
13 | CC(C(=O)Nc1ccccc1F)n1cnc2c1c(=O)n(C)c(=O)n2C (centres unmarked) [Compound 334] | > 10 µM
14 | Cn1c(=O)c2c(ncn2CC(=O)NCCc2c[nH]c3ccccc23)n(C)c1=O [Compound 335] | > 10 µM
15 | CC(C)N(C(=O)Cn1cnc2c1c(=O)n(C)c(=O)n2C)c1ccccc1 [Compound 336] | > 10 µM
16 | Cn1c(=O)c2c(ncn2CC(=O)NCc2ccccc2CN2CCOCC2)n(C)c1=O [Compound 337] | > 10 µM
17 | Cn1c(=O)c2c(ncn2CC(=O)Nc2ccccc2C(=O)NC2CC2)n(C)c1=O [Compound 338] | > 10 µM
18 | Cc1nn(Cc2ccccc2)c(C)c1CNC(=O)Cn1cnc2c1c(=O)n(C)c(=O)n2C [Compound 339] | > 10 µM
19 | Cn1c(=O)c2c(ncn2CC(=O)Nc2ccnn2C2CCCC2)n(C)c1=O [Compound 340] | > 10 µM
20 | Cn1c(=O)c2c(ncn2CC(=O)Nc2ncc(Cl)cc2Cl)n(C)c1=O [Compound 341] | > 10 µM

Row | Compound | IC50
21 | CN(Cc1ccccc1N1CCOCC1)C(=O)Cn1cnc2c1c(=O)n(C)c(=O)n2C [Compound 342] | > 10 µM
22 | Cn1c(=O)c2c(ncn2CC(=O)NC(c2ccc(F)cc2)c2cccs2)n(C)c1=O (centres unmarked) [Compound 343] | > 10 µM
23 | CC(C)C(NC(=O)Cn1cnc2c1c(=O)n(C)c(=O)n2C)c1ccc2c(c1)OCCCO2 (centres unmarked) [Compound 345] | > 10 µM
24 | COC(=O)c1ccc(C)c(NC(=O)Cn2cnc3c2c(=O)n(C)c(=O)n3C)c1 [Compound 346] | ≥ 30 µM
25 | CC1CCCC(NC(=O)Cn2cnc3c2c(=O)n(C)c(=O)n3C)C1C (centres unmarked) [Compound 349] | > 10 µM
26 | Cn1c(=O)c2c(ncn2CC(=O)Nc2ccccc2SCc2ccccc2)n(C)c1=O [Compound 351] | > 10 µM
27 | Cn1c(=O)c2c(ncn2CC(=O)NC(c2ccccc2)c2cccs2)n(C)c1=O (centres unmarked) [Compound 352] | > 10 µM
28 | Cc1cccc(NC(=O)c2ccccc2NC(=O)Cn2cnc3c2c(=O)n(C)c(=O)n3C)c1 [Compound 355] | ≥ 20 µM
29 | Cc1c(C#N)c(NC(=O)Cn2cnc3c2c(=O)n(C)c(=O)n3C)n(Cc2ccccc2)c1C [Compound 356] | > 10 µM
30 | Cn1c(=O)c2c(ncn2CC(=O)NC(CN2CCOCC2)c2ccccc2)n(C)c1=O (centres unmarked) [Compound 357] | > 10 µM
31 | Cc1ccccc1NC(=O)Cn1cnc2c1c(=O)n(C)c(=O)n2C [Compound 358] | > 10 µM
32 | CCc1cccc(C)c1NC(=O)Cn1cnc2c1c(=O)n(C)c(=O)n2C [Compound 359] | > 10 µM
33 | COc1ccccc1NC(=O)Cn1cnc2c1c(=O)n(C)c(=O)n2C [Compound 361] | > 10 µM
34 | CCOC(=O)c1ccccc1NC(=O)Cn1cnc2c1c(=O)n(C)c(=O)n2C [Compound 362] | > 10 µM
35 | COC(=O)c1ccc(NC(=O)Cn2cnc3c2c(=O)n(C)c(=O)n3C)cc1 [Compound 363] | ≤ 10 µM
36 | COc1ccc(CNC(=O)Cn2cnc3c2c(=O)n(C)c(=O)n3C)cc1 [Compound 364] | > 10 µM
37 | COC(=O)c1ccccc1NC(=O)Cn1cnc2c1c(=O)n(C)c(=O)n2C [Compound 365] | > 10 µM
38 | CCOC(=O)c1ccc(NC(=O)Cn2cnc3c2c(=O)n(C)c(=O)n3C)cc1 [Compound 366] | ≤ 5 µM
39 | Cn1c(=O)c2c(ncn2CC(=O)Nc2cccnc2)n(C)c1=O [Compound 367] | > 10 µM
40 | Cn1c(=O)c2c(ncn2CC(=O)NCc2ccco2)n(C)c1=O [Compound 368] | > 10 µM

The remaining lines, values ahead:

Row | IC50 | Compound
41 | > 10 µM | Cn1c(=O)c2c(ncn2CC(=O)Nc2ccccc2Cc2ccccc2)n(C)c1=O [Compound 258]
42 | > 10 µM | Cc1ccc(NC(=O)Cn2cnc3c2c(=O)n(C)c(=O)n3C)cc1 [Compound 259]
43 | > 10 µM | Cn1c(=O)c2c(ncn2CC(=O)Nc2ccccc2-c2nc3ccccc3[nH]2)n(C)c1=O [Compound 260]
44 | > 10 µM | Cc1ccc(NC(=O)Cn2cnc3c2c(=O)n(C)c(=O)n3C)c(Cl)c1 [Compound 263]
45 | > 10 µM | Cc1ccc(-c2csc(NC(=O)Cn3cnc4c3c(=O)n(C)c(=O)n4C)n2)cc1C [Compound 270]
46 | > 10 µM | Cc1cc(C)c(-c2csc(NC(=O)Cn3cnc4c3c(=O)n(C)c(=O)n4C)n2)c(C)c1 [Compound 272]
47 | ≤ 10 µM | CC(C)N(c1ccccc1)c1ccc(NC(=O)Cn2cnc3c2c(=O)n(C)c(=O)n3C)cc1 [Compound 273]
48 | > 10 µM | Cn1c(=O)c2c(ncn2CC(=O)NCc2cccc(C(F)(F)F)c2)n(C)c1=O [Compound 275]
49 | > 10 µM | Cn1c(=O)c2c(ncn2CC(=O)Nc2ccc(F)c(F)c2F)n(C)c1=O [Compound 276]
50 | > 10 µM | Cn1c(=O)c2c(ncn2CC(=O)NC2CCCCCCC2)n(C)c1=O [Compound 278]
51 | > 10 µM | CC1CCCCC1NC(=O)Cn1cnc2c1c(=O)n(C)c(=O)n2C (centres unmarked) [Compound 279]
52 | ≤ 10 µM | COc1ccc(NC(=O)Cn2cnc3c2c(=O)n(C)c(=O)n3C)cc1Cl [Compound 280]
53 | ≤ 10 µM | CSc1cccc(NC(=O)Cn2cnc3c2c(=O)n(C)c(=O)n3C)c1 [Compound 282]
54 | > 10 µM | CCN(C(=O)Cn1cnc2c1c(=O)n(C)c(=O)n2C)c1ccccc1 [Compound 283]
55 | > 10 µM | Cn1c(=O)c2c(ncn2CC(=O)NCc2cccc(Cl)c2)n(C)c1=O [Compound 286]
56 | ≤ 10 µM | Cc1sc(NC(=O)Cn2cnc3c2c(=O)n(C)c(=O)n3C)nc1-c1ccc(Cl)cc1 [Compound 287]
57 | > 10 µM | Cn1c(=O)c2c(ncn2CC(=O)N(Cc2ccccc2)CC(F)(F)F)n(C)c1=O [Compound 288]
58 | > 10 µM | Cn1c(=O)c2c(ncn2CC(=O)NC(C)(C)C)n(C)c1=O [Compound 289]
59 | ≤ 10 µM | COC(=O)c1cccc(NC(=O)Cn2cnc3c2c(=O)n(C)c(=O)n3C)c1 [Compound 290]
60 | ≤ 5 µM | CCN(C(=O)Cn1cnc2c1c(=O)n(C)c(=O)n2C)c1ccc(F)cc1 [Compound 291]
61 | > 10 µM | Cc1ccc(NC(=O)NC(=O)Cn2cnc3c2c(=O)n(C)c(=O)n3C)c(C)c1 [Compound 292]
62 | > 10 µM | CN(CC(=O)Nc1ccc(F)c(F)c1F)C(=O)Cn1cnc2c1c(=O)n(C)c(=O)n2C [Compound 293]

Row | IC50 | Compound
63 | > 10 µM | CC(C(=O)Nc1cccc(Cl)c1)n1cnc2c1c(=O)n(C)c(=O)n2C (centres unmarked) [Compound 297]
64 | > 10 µM | Cc1cc(Cl)ccc1NC(=O)Cn1cnc2c1c(=O)n(C)c(=O)n2C [Compound 298]
65 | > 10 µM | CC(C(=O)N(C)c1ccccc1)n1cnc2c1c(=O)n(C)c(=O)n2C (centres unmarked) [Compound 301]
66 | > 10 µM | CC(C(=O)Nc1ccccc1)n1cnc2c1c(=O)n(C)c(=O)n2C (centres unmarked) [Compound 302]
67 | > 10 µM | COc1ccccc1NC(=O)C(C)n1cnc2c1c(=O)n(C)c(=O)n2C (centres unmarked) [Compound 303]
68 | ≤ 5 µM | Cn1c(=O)c2c(ncn2CC(=O)Nc2ccc(Cl)cc2F)n(C)c1=O [Compound 304]
69 | > 10 µM | Cc1ccc(NC(=O)Cn2cnc3c2c(=O)n(C)c(=O)n3C)cc1F [Compound 306]
70 | > 10 µM | Cn1c(=O)c2c(ncn2CC(=O)NCC(c2ccco2)N2CCCC2)n(C)c1=O (centres unmarked) [Compound 308]
71 | > 10 µM | CC(=O)c1ccccc1NC(=O)Cn1cnc2c1c(=O)n(C)c(=O)n2C [Compound 309]
72 | > 10 µM | CC(NC(=O)Cn1cnc2c1c(=O)n(C)c(=O)n2C)c1ccc2c(c1)OCCO2 (centres unmarked) [Compound 310]
73 | > 10 µM | CSc1ccccc1NC(=O)CN(C)C(=O)Cn1cnc2c1c(=O)n(C)c(=O)n2C [Compound 311]
74 | > 10 µM | Cn1c(=O)c2c(ncn2CC(=O)NCC(c2cccs2)N2CCCC2)n(C)c1=O (centres unmarked) [Compound 312]
75 | ≤ 10 µM | CC(C(=O)Nc1cc(Cl)cc(Cl)c1)n1cnc2c1c(=O)n(C)c(=O)n2C (centres unmarked) [Compound 314]
76 | > 10 µM | CSc1ccccc1NC(=O)Cn1cnc2c1c(=O)n(C)c(=O)n2C [Compound 316]
77 | > 10 µM | Cn1c(=O)c2c(ncn2CC(=O)NCC(c2ccc(F)cc2)N2CCOCC2)n(C)c1=O (centres unmarked) [Compound 317]
78 | > 10 µM | CC(C(=O)Nc1cccc(C(F)(F)F)c1)n1cnc2c1c(=O)n(C)c(=O)n2C (centres unmarked) [Compound 318]
79 | ≤ 10 µM | Cn1c(=O)c2c(ncn2CC(=O)NCCOc2ccc(C(C)(C)C)cc2)n(C)c1=O [Compound 320]
80 | ≤ 10 µM | Cn1c(=O)c2c(ncn2CC(=O)Nc2ccc3c(c2)OCCCO3)n(C)c1=O [Compound 326]
81 | ≤ 5 µM | Cc1nc(-c2ccc(CCNC(=O)Cn3cnc4c3c(=O)n(C)c(=O)n4C)cc2)cs1 [Compound 353]
82 | ≤ 5 µM | Cn1c(=O)c2c(ncn2CC(=O)Nc2ccc(N3CCCCCC3)cc2)n(C)c1=O [Compound 354]
83 | ≤ 10 µM | CC(=O)c1ccc(NC(=O)Cn2cnc3c2c(=O)n(C)c(=O)n3C)cc1 [Compound 360]

— patent US7671061B2, “Methods and compositions for treating pain” (Hydra Biosciences, Inc., priority 2005, dated 2010)
